# According to ChEMBL document CHEMBL4190185 (Medchemcomm, 2016):
# Calls of active or inactive are those of the source. The calls are words filed in the database; no cut-off is given here.
# Experiments:
# [1] = molecular target: Estrogen receptor beta (Mus musculus) (UniProt O08537); assay: Up regulation of ERbeta expression in mouse calvarial osteoblasts at 1 to 100 pM after 48 hrs by Western blot analysis
# Calvarial osteoblast [2] = assay: Induction of osteoblast differentiation in mouse calvarial osteoblasts assessed as increase in osterix mRNA expression at 1 to 100 pM after 48 hrs by SYBR green1 staining based RT-qPCR analysis; format: functional, cell-based
# [3] = molecular target: T1, Estrogen receptor (Mus musculus) (UniProt P19785); assay: Up regulation of ERalpha expression in mouse calvarial osteoblasts at 1 to 100 pM after 48 hrs by Western blot analysis
# T1 sequence (whole entry): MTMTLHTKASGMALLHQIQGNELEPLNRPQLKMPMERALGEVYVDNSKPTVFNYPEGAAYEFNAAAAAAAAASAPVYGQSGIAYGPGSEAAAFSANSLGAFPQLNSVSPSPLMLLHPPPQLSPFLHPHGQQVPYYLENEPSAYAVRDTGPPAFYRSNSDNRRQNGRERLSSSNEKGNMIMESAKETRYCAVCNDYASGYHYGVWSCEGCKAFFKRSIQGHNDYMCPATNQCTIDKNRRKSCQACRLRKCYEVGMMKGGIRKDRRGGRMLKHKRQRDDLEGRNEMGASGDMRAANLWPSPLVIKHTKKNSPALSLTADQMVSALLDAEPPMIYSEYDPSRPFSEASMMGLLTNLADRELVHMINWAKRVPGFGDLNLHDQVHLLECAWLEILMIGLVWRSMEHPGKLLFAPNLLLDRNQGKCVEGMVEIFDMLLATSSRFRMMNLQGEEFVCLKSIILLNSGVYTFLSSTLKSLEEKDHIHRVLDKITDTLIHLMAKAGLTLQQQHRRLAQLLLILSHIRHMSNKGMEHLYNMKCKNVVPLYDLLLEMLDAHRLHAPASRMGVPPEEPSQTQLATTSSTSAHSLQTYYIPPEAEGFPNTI
# Calvarial osteoblast [4] = assay: Induction of osteoblast differentiation in mouse calvarial osteoblasts assessed as increase in BMP2 mRNA expression at 1 to 100 pM after 48 hrs by SYBR green1 staining based RT-qPCR analysis; format: functional, cell-based
# [5] = molecular target: Estrogen receptor beta (Mus musculus) (UniProt O08537); assay: Activation of ERbeta in mouse calvarial osteoblasts assessed as induction of osteoblast differentiation by measuring increase in ALP activity at 1 pM using PNPP as substrate after 48 hrs by colorimetric method
# [6] = molecular target: Estrogen receptor beta (Mus musculus) (UniProt O08537); assay: Activation of ERbeta in mouse calvarial osteoblasts assessed as induction of mineralization by measuring increase in calcium nodules at 1 pM supplemented with fresh medium containing compounds every 48 hrs for 18 days measured on day 18 by alizarin red-S staining based colorimetric method relative to control
# Calvarial osteoblast [7] = assay: Cytotoxicity against mouse calvarial osteoblasts at 0.000001 to 1 uM after 48 hrs by MTT assay; format: cell-based
# Calvarial osteoblast [8] = assay: Induction of osteoblast differentiation in mouse calvarial osteoblasts assessed as increase in RUNX2 mRNA expression at 1 to 100 pM after 48 hrs by SYBR green1 staining based RT-qPCR analysis; format: functional, cell-based
# Chain of Estrogen receptor beta (Mus musculus) (O08537 whole entry): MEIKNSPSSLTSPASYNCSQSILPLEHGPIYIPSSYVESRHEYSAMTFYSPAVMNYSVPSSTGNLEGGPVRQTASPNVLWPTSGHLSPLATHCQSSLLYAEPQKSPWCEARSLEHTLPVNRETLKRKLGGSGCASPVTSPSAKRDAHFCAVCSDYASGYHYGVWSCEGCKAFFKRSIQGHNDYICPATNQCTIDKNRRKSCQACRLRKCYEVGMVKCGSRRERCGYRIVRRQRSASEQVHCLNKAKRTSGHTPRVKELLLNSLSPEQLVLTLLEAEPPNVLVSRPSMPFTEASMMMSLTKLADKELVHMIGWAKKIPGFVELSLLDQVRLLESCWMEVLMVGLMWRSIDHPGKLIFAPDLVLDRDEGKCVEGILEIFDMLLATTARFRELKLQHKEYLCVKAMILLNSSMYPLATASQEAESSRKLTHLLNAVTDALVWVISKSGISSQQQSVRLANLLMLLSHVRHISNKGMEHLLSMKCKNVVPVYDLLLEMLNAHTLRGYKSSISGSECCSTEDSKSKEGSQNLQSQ
Structure (SMILES),Activity [1],Activity (Calvarial osteoblast [2]),Activity [3],Activity (Calvarial osteoblast [4]),Activity [5],Activity [6],Activity (Calvarial osteoblast [7]),Activity (Calvarial osteoblast [8])
COc1ccc(C2COc3cc(OCCCCC(C)(C)O)ccc3C2)cc1 (centres undefined),Active,Active,Active,Active,Active,20%,Non-Toxic,Active
CCC(O)(CC)CCCCOc1ccc2c(c1)OCC(c1ccc(OC)cc1)C2 (centres undefined),,,,,Active,,Non-Toxic,
CCOC(=O)CCCCCOc1ccc2c(c1)OCC(c1ccc(OC)cc1)C2 (centres undefined),,,,,Active,,Non-Toxic,
COc1ccc(C2COc3cc(OCCCCCC(C)(C)O)ccc3C2)cc1 (centres undefined),,,,,Active,,Non-Toxic,
